According to patent publication US20060278218A1, “Non-invasive restrained whole body plethysmography for measurement of airway function in conscious mice” (priority 2005, published 2006):
Where “and” joins values, the source holds several entries; their conditions need not be identical. Identical values can stand only once. Marks after values point to notes of the source that are not given here.

What was measured:
Format in all cases: in vivo, mouse
conscious mice [1] = assay: Methacholine aerosol challenge in conscious mice, restrained whole body plethysmography (RWBP); conditions: for sRaw-RWBP ED175: mean; for average sRaw: one C57BL/6 mouse
Source text: The dynamic properties of the plethysmograph were studied by varying pressures in the chamber (John, J., B. Drefeldt, et al. (1994). “Dynamic properties of body plethysmographs and effects on physiological parameters.” J Appl Physiol 77(1): 152-9. (hereinafter John, et al.), incorporated herein by reference). A leak (3.2 sec to 36% peak pressure) was created by a Luer connector mounted in the wall of the box, which was attached to a length of tubing, a stopcock and needle (22 g, 2 cm). The leak resistance was measured to be 5.37 cm H2O/L/sec and inertance 0.029 s^2/mL. A step pressure created by (a) hammering gently the plunger of a syringe loaded to an expected volume (0.02 mL), and (b) balloon burst both peaked between 19-21 msec, with a thermal time constant (described by a single compartment) of 0.95 sec. Amplitude was examined as a function of input frequency using digitally controlled square and sinusoidal flows delivered with a piston-driven mouse ventilator (flexiVent, Scireq Corp, Montreal, Canada). Box pressure amplitude remained within 3% of the delivered volume (0.1 mL) from 1-10 Hz, and within 0.075% between 2 and 5 Hz, the range most relevant to breathing in conscious mice. Therefore the conditions were adiabatic across these frequencies. Time shifts between flow, delivered via the pneumotachograph within the box, and peak box pressure averaged less than 3 msec (range 1-6 msec) from 0.5-20 Hz generated using a broadband input generator (flexiVent, Scireq Corp). Pressure in the plethysmographic chamber was sampled differential pressure transducer 20 (TRD 5700, Buxco Electronics, Wilmington, N.C.) referenced to the atmospheric reference chamber 18 The pneumotachograph 52 (8431 Series, Hans Rudolph, Kansas City, Mo.) heated to 38-39° C. measured flow and flow-derived parameters. Data was sampled at 2500 Hz per channel using commercial hardware (Max1420 Buxco Electronics, PCI 6024E, National Instruments) and software (Biosystem XA version 2.9.4, Buxco Electronics, Inc). The pneumotachograph was calibrated by integration of the flow, injected as a known volume (0.5 mL). Box volume was calibrated by rapid injection of a known volume (0.1 mL) into the chamber between each mouse, and checked repeatedly using injections of varying volumes and quasi-sinusoidal inputs. Bias flow (0.5 L/min) was employed between recordings, and the box vented fully between methacholine challenges.
FIGS. 9A-9D are box volume-flow plots for the experiments performed using an RWBP according to the invention. Primary waveforms (box volume, flow) are reviewed and period of peak responses based on EF50 are identified. These occurred regularly between 1.5-2.5 minutes after exposure to methacholine. FIGS. 9A-9D have a stripchart for pneumotachograph flow and plethysmographic volume. Below the stripcharts are corresponding X-Y plots of flow (Y-axis) and box volume shift (X-axis). A slope (θ) of the box volume-flow plot was measured using a protractor (accurate to 0.5 degrees) on the straightest possible segment between −1 to 1 mL/sec. Angles are measured at the transition from expiration to inspiration to minimize the contribution of heating and humidification to the box volume signal (see Agrawal K P). Gains were set to produce angles (tangents) between 40 and 75 degrees. Breaths with evidence of laryngeal braking are avoided. Specific airway resistance (sRaw) is computed from the plots as follows: sRaw=(1/tan θ)*(Patm−PH2O)*Cf*(Vbox−bwt mouse)/Vbox, Equation 1: where Patm is atmospheric pressure, PH2O is water vapor pressure, Cf is a scaling factor for X and Y axes, Vbox is volume of the outer chamber, and bwt mouse is the weight of the mouse in units of grams.
Challenges were conducted at the same time of day (morning or afternoon) for each mouse. Ambient temperatures in the laboratory ranged from 21-23° C. and humidity ranged from 25-45%. Baseline recordings were obtained after 2 min acclimation to the chamber. […]

[2] = tested on: anesthetized, tracheotomized mice; assay: Methacholine challenge in anesthetized mice using forced oscillation technique (FOT); conditions: for Raw ED175: provocative concentration increasing Raw-FOT to 175% baseline, mean
Protocol: The methods for FOT have been previously described in Tomioka, S., J. H. Bates, et al. (2002). “Airway and tissue mechanics in a murine model of asthma: alveolar capsule vs. forced oscillations.” J Appl Physiol 93(1): 263-70. (hereinafter Tomioka, et al.), incorporated herein by reference. Mice were anesthetized with ketamine (50 mg/kg) and xylazine (5 mg/kg) (Butler Co, Dublin, Ohio) intra-peritoneally, and a tracheostomy performed with a 19 g cannula (Becton Dickinson and Company Franklin Lakes, N.Y.). Mice were paralyzed with pancuronium (1 mg/ml, Baxter Healthcare Corp. Irvine, Calif.). Supplemental xylazine and ketamine (½ doses) were provided every ½ hour. Ventilation was set at frequency of 200 BPM, VT 0.3 ml, positive end-expiratory pressure (PEEP) 3.0 cm H20, and oxygen was supplemented throughout. Repeated measurements were performed with a commercial data acquisition system for input impedance between 1-20 Hz (Quick Prime 3 analyzer, FlexiVent System, SCIREQ Corp, Montreal, Quebec). A constant phase model (Gomes, R. F., X. Shen, et al. (2000). “Comparative respiratory system mechanics in rodents.” J Appl Physiol 89(3): 908-16 (hereinafter Gomes, et al.)., incorporated herein by reference) was employed to obtain airway resistance Raw, tissue resistance coefficient Gti, and tissue elastance coefficient Hti.
Aerosols were delivered directly into the tracheal cannula during lung inflation during mechanical ventilation (flexiVent, Scireq Corp, Montreal, Quebec). Ten second nebulization periods were used, followed immediately by a series (8-15) of measurements. Prior to each measurement of lung mechanics, the lung was inflated to total lung capacity (TLC) (30 cm H2O airway pressure). Forced oscillations during apnea (3 seconds in duration) were applied every 17 seconds for 5 minutes. Dosage ranges were pre-determined in pilot studies to evoke between 10 and >75% increase in airway resistance (Raw). Methacholine in C57 mice was delivered at 0 (saline), 4, 8, and 16 mg/mL, and in AJ we used 0, 2, 4, and 8 mg/mL. The concentration of methacholine that provoked an increase in Raw-FOT to 175% baseline (ED 175) was determined by log-linear interpolation as described above.

conscious mice [3] = assay: Methacholine aerosol challenge in conscious mice, double chamber plethysmography (DCP); conditions: BALBc (pre-OVA) mice, n=8; provocative concentration increasing sRaw to 175% post-saline value; mean
Protocol: The double chamber plethysmograph was purchased from a commercial source (PLY3351, Buxco Electronics Inc, Wilmington, N.C.). The techniques for measurement with this technique have been described previously (DeLorme, et al. and Flandre, et al.). The flow for each chamber (nasal and thoracic) of the DCP was calibrated separately by rapid injection of a known volume (0.5 mL) into the chamber; volume was matched by the integration of flow. The accuracy of calibration was checked before each test. The phase lag between the chambers was negligible (<0.01 msec up to 10 Hz). For DCP, mice were loaded into the rear of the thoracic chamber and pushed forward until the head protruded through a hole in a latex neck seal provided with the equipment. […] Computation of sRaw measured with DCP (hereinafter sRaw-DCP) followed protocols established by Pennock, et al. and later applied to mice by Flandre, et al, whereby the time lag (dT) between the thoracic and nasal flow at zero crossing (during transition between inspiration and expiration) was utilized as follows: sRaw−DCP=(Ti+Te)/(2π)×(Patm−47)×1.36 2×π×dT/(Ti+Te), Equation 2: where Ti and Te equal inspiratory and expiratory time (sec) and Patm atmospheric pressure (cm H2O). The peak dT was identified and 10 sequential breaths free from movement artifacts were measured for that period. […]

## CC(=O)OC(C)C[N+](C)(C)C (centres unmarked) [methacholine]
Conscious mice [1]; AJ mice, n=18, provocative concentration increasing sRaw to 175% post-saline value
  sRaw-RWBP ED175: 4.49^a,b mg/mL
Conscious mice [1]; BALBc (no OVA) mice, n=18, provocative concentration increasing sRaw to 175% post-saline value
  sRaw-RWBP ED175: 10.9^a mg/mL
Conscious mice [1]; BALBc (post-OVA) mice, n=8, 48 hrs following allergen challenge in sensitized group
  sRaw-RWBP ED175: 5.0 mg/mL and 5.0^a,c mg/mL
Conscious mice [1]; BALBc (pre-OVA) mice, n=8, prior to sensitization and aerosol exposure to ovalbumin
  sRaw-RWBP ED175: 9.2 mg/mL and 9.2^ mg/mL
Conscious mice [1]; C57 mice, n=18, provocative concentration increasing sRaw to 175% post-saline value
  sRaw-RWBP ED175: 40.5^b mg/mL
Conscious mice [1]; conscious C57, AJ and BALBc mice, any strain (FIG. 10C)
  change in tidal volume: no change
Conscious mice [1]; conscious C57, AJ and BALBc mice, dose response (FIG. 10A)
  change in sRaw-RWBP: significant dose-dependent increase
Conscious mice [1]; conscious C57, AJ and BALBc mice, dose response (FIG. 10B)
  change in respiratory frequency: significant decrease
Conscious mice [1]; methacholine aerosol dose 10 mg/mL (FIG. 9B)
  average sRaw: 0.75 cm·s
Conscious mice [1]; methacholine aerosol dose 50 mg/mL (FIG. 9C)
  average sRaw: 0.86 cm·s
Conscious mice [1]; methacholine aerosol dose 100 mg/mL (FIG. 9D)
  average sRaw: 1.61 cm·s
Conscious mice [1]; time after exposure to methacholine
  period of peak responses based on EF50 after exposure: 1.5 to 2.5 min
[2]; AJ mice, n=18
  Raw ED175: 2.3^a mg/mL
[2]; BALBc (pre-OVA) mice
  Raw ED175: 9.48 mg/mL
[2]; C57 mice, n=18
  Raw ED175: 8.3 mg/mL
[2]; anesthetized, tracheotomized C57, AJ and BALBc mice, all 3 strains (FIG. 11)
  change in Raw: dose-dependent increase
Conscious mice [3]
  sRaw-DCP ED175: 7.1^a mg/mL
